Assay results taken from PMC5111108, “An insecticide resistance-breaking mosquitocide targeting inward rectifier potassium channels in vectors of Zika virus and malaria” (Scientific Reports, 2016).
Where two headings read alike, the source gives them in different places.

What was measured:
hKir2.1 = biological target: T1, hKir2.1 (Homo sapiens, UniProt P63252); assay: Tl+ flux assay, mammalian Kir2.1; assay type: cell-based
T1 construct: expressed in transfected cells
T1 sequence (P63252 1-427): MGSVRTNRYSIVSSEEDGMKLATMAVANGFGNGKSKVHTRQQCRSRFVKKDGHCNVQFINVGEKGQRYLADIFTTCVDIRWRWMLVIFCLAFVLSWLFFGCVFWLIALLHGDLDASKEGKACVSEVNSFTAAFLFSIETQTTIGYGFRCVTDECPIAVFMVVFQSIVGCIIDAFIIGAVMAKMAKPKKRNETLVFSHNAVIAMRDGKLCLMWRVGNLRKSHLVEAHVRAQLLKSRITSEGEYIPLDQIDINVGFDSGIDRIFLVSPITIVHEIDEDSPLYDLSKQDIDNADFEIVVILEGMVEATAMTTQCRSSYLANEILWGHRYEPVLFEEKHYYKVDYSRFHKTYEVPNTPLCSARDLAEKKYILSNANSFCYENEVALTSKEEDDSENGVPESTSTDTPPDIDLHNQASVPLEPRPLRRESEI
Experimental: The open-reading frame of a full-length cDNA encoding AnKir1 cloned from An. gambiae Malpighian tubules (Genbank Accession # KJ596497)[17] was sub-cloned into the pcDNA5/TO expression vector (Life Technologies) and used for stable cell line generation, as described previously. Expression constructs for mammalian Kir channels were developed and validated in previous studies by our group.
Tl+ flux assay development
Tl+ flux assays were performed essentiall y as described previousl y (1). Briefl y, stabl y transfect ed T-Rex -HEK- 293- AnKir1 cells were cultured overnight in 384-well plates in media containing DMEM, 10% dial yz ed FBS and 1μg/ m L tetrac ycline to induce channel expression
(Fig. S1A). The next day, the cell culture medium was replaced with a dye-loading solution containing assay buffer (Hanks Balanced Salt Solution with 20 mM HEPES, pH 7.3), 0.01% (w/v) Pluronic F-127 (Li fe Technologies, Carlsbad, CA), and 1.2 μM of the thallium-sensitive dye Thallos-AM (TEFl abs, Austin, TX). Following 1 hr incubation at room temperature, the d ye-loading solution was washed from the plates and replaced with 20 μ L/well of assa y buffer. The plates were transferred t o a Ham amatsu Functional Drug Screening System 6000 (FDSS6000; Hamamatsu, Tokyo, J apan) where 20 μ L/well of test compounds in assay buffer (as prepared below) were added and allowed to incubate with the cells for 20 min. After the incubation period, a baseline recordi ng was collected at 1 Hz for 10 s (excitation 470 ± 20 nm, emission 540 ± 30 nm) followed by a t hallium stimulus buffer addition (10 μL/well) and data collection for an additional 4 min. The Tl + stimulus buffer contains in (mM) 125 NaHCO3, 1.8 CaSO4, 1 MgSO4, 5 glucose, 12 Tl2SO4, 10 HEPES, pH 7.4. For Tl + flux assays on Kir2.x, Kir4.1 and Kir6.2/SUR1 ex pressing cells, the Tl+ stimulus buffer contained 1.8 mM Tl 2SO4. […]
Prism software (GraphPad Software) was used to generate CRC from Tl+ fl ux ..Half-inhibition concentration (IC50) values were calculated from fits using a four parameter logistic equation.
High-throughput screeni ng
The test compounds were transferred to daughter pol yprop ylene 384-well plates (G reiner Bio-One, Monroe, NC) using an Echo555 liquid handler (Labcyte, Sunnyvale, CA), and then diluted into assay buffer to generat e a 2X stock in 0.6% DMSO (0.3% final). […]
Concentration- response curves (CRCs) were gener ated b y screening compounds at 3-fold dilution series (1 nM - 30 μM).
Tl+ flux data were anal yzed as previousl y d escri bed (2, 3) using a combination of Excel (Microsoft Corp, Redmond, WA) with XLfit add-in (IDBS, Guildford, Surre y, UK), Ori ginPro (Ori gin Lab, Northampton, MA), and GraphPad Prism (GraphPad Software, San Diego, CA, USA) software. R aw data were opened in Excel and each data point in a gi ven trace was divided by the first data point from that trace (static ratio) followed by subtraction of data points from control traces gen erated in presence of vehicl e co ntrols. The slope of the fluorescen ce increas e beginning 5 s after Tl+ addition and ending 15 s after Tl + addition was calcu lated.

An. gambiae G3 strain = assay: Topical toxicity bioassay, An. gambiae G3 strain adult females; assay type: in vivo, Anopheles gambiae; conditions: adult female An. gambiae; for ED50, G3 Strain: 24 h, (95% confidence limits), synergists PBO/DEF applied 4 h prior where labelled
Experimental: Topical toxicity bioassays were performed based on the method of Pridgeon et al.[50]. Briefly, non-blood fed adult female mosquitoes were chilled on ice for 1–3 minutes, during which 200 nL of chemical (dissolved in 95% ethanol) was applied onto the abdomen of the insect using a handheld Hamilton® micro-applicator. For synergism studies, 500 ng of the synergist (i.e., piperonyl butoxide [PBO] or S,S,S-tributyl phosphorotrithioate [DEF]) per milligram of mosquito (ng/mg) was applied to the abdomen 4 h prior to application of the insecticide. […] The three ED50 values obtained were then averaged and presented as a mean. An ethanol-only treatment was included in each experiment as a negative control. Treated mosquitoes were transferred to small cages with access to 10% sucrose and held under rearing conditions for 24 h. Mortality was recorded at 24 h.

[1] = Tl+ flux assay, read-out: Kir2.1 IC50 (Tl+ flux)
[2] = Tl+ flux, Tables S2/S3 and supplemental text, read-out: hKir2.1 IC50

| SMILES | IC50 (hKir2.1; [1]) [µM] | IC50 (hKir2.1; [2]) [µM] | ED50, G3 Strain (An. gambiae G3 strain) | ED30 (An. gambiae G3 strain) |
| --- | --- | --- | --- | --- |
| O=C(Cn1nc(C(F)(F)F)c2c1CCCC2)N1CCCc2ccccc21 [VU041, 1-(3,4-dihydroquinolin-1(2H)-yl)-2-(3-(trifluoromethyl)-4,5,6,7-tetrahydro-1H-indazol-1-yl)ethan-1-one] | 12.7 | 11.3 | 1.8 (0.9–3.1) A μg/mg | 1 μg/mg of mosquito |
| O=C(Cn1nc(C(F)(F)F)c2c1CCCC2)NC1CCC1 [VU937] | – | – | >10 µg/mg | – |
| O=C(Cn1nc(C(F)(F)F)c2c1CCCC2)N1CCCC2CCCCC21 (centres unmarked) [Compound 9] | – | > 30 | – | – |
| O=C(Cn1ncc2c1CCOC2)N1CCCc2ccccc21 [VU730] | > 30 | – | 2.4 (2.1–2.9) A μg/mg | – |
| CC1CC(C)CN(C(=O)Cn2nc(C(F)(F)F)c3c2CCCC3)C1 (centres unmarked) [Compound 13] | – | > 30 | – | – |
| O=C(Cn1nc(C(F)(F)F)c2c1CCCC2)N1CCCC(c2ccccc2)C1 (centres unmarked) [Compound 12] | – | > 30 | – | – |
| O=C1CCCc2c1ccn2CC(=O)N1CCCc2ccccc21 [Compound 4] | – | > 30 | – | – |
